Data: patent US20230085307A1, “PYRIDAZINONE COMPOUND AND HERBICIDE” (NISSAN CHEMICAL CORPORATION, priority 2019, published 2023)

How the values were obtained:
southern crabgrass [1] = experiment: Test Example 5: herbicidal effect by foliage application, plastic box (Table 20, symbol F); type: in vivo, southern crabgrass (Digitaria ciliaris); conditions: foliage application, 320 g/ha, evaluated three weeks after application
Procedure, shortened: (§1)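 Foliar spray test: emulsion formulation diluted in water to a set application rate, sprayed onto 14-day-old plants raised in diluvial soil at 25° C to 30° C under glass. Both herbicidal effect and crop effect rated visually three weeks later.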

windgrass [2] = experiment: Test Example 5: herbicidal effect by foliage application, plastic box (Table 20, symbol L); type: in vivo, windgrass (Apera spica-venti); conditions: foliage application, 320 g/ha, evaluated three weeks after application
Procedure, shortened: as §1

windgrass [3] = experiment: Test Example 4: herbicidal effect by soil treatment (Table 19, symbol L); type: in vivo, windgrass (Apera spica-venti); conditions: amount of applied herbicide 320 g/ha
Procedure, shortened: (§2)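 Step 1: sow seeds in sterilized diluvial soil, cover ~1.5 cm. Step 2: spray diluted emulsion onto soil surface at predetermined rate. Step 3: greenhouse, 25–30° C, three weeks. Step 4: grade effect on each plant by earlier criteria.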

Italian ryegrass [4] = experiment: Test Example 4: herbicidal effect by soil treatment (Table 19, symbol K); type: in vivo, Italian ryegrass (Lolium multiflorum); conditions: amount of applied herbicide 320 g/ha
Procedure, shortened: as §2

lambsquarters [5] = experiment: Test Example 5: herbicidal effect by foliage application, plastic box (Table 20, symbol O); type: in vivo, lambsquarters (Chenopodium album); conditions: foliage application, 320 g/ha, evaluated three weeks after application
Procedure, shortened: as §1

barnyard grass [6] = experiment: Test Example 4: herbicidal effect by soil treatment (Table 19, symbol H); type: in vivo, barnyard grass (Echinochloa crus-galli); conditions: amount of applied herbicide 320 g/ha
Procedure, shortened: as §2

velvetleaf [7] = experiment: Test Example 4: herbicidal effect by soil treatment (Table 19, symbol M); type: in vivo, velvetleaf (Abutilon theophrasti); conditions: amount of applied herbicide 320 g/ha
Procedure, shortened: as §2

green foxtail [8] = experiment: Test Example 5: herbicidal effect by foliage application, plastic box (Table 20, symbol G); type: in vivo, green foxtail (Setaria viridis); conditions: foliage application, 320 g/ha, evaluated three weeks after application
Procedure, shortened: as §1

southern crabgrass [9] = experiment: Test Example 4: herbicidal effect by soil treatment (Table 19, symbol F); type: in vivo, southern crabgrass (Digitaria ciliaris); conditions: amount of applied herbicide 320 g/ha
Procedure, shortened: as §2

Chinese sprangletop = experiment: Test Example 3: herbicidal effect by foliage application, Wagner pot (Table 18, symbol D); type: in vivo, chinese sprangletop (Leptochloa chinensis); conditions: amount of applied herbicide 320 g/ha
Procedure, shortened: (§3)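 Plants were sown in alluvial soil held under 0.1–0.5 cm standing water and grown 14 days in a greenhouse at 25–30 °C. An emulsifiable formulation, water-diluted to the set dose, was then sprayed onto the foliage, and effects were scored three weeks later using previously defined criteria.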

blackgrass [10] = experiment: Test Example 4: herbicidal effect by soil treatment (Table 19, symbol J); type: in vivo, blackgrass (Alopecurus myosuroides); conditions: amount of applied herbicide 320 g/ha
Procedure, shortened: as §2

wild oat [11] = experiment: Test Example 4: herbicidal effect by soil treatment (Table 19, symbol I); type: in vivo, wild oat (Avena fatua); conditions: amount of applied herbicide 320 g/ha
Procedure, shortened: as §2

rice flat sedge = experiment: Test Example 3: herbicidal effect by foliage application, Wagner pot (Table 18, symbol E); type: in vivo, rice flat sedge (Cyperus iria); conditions: amount of applied herbicide 320 g/ha
Procedure, shortened: as §3

persian speedwell [12] = experiment: Test Example 4: herbicidal effect by soil treatment (Table 19, symbol R); type: in vivo, Persian speedwell (Veronica persica); conditions: amount of applied herbicide 320 g/ha
Procedure, shortened: as §2

barnyard grass [13] = experiment: Test Example 5: herbicidal effect by foliage application, plastic box (Table 20, symbol H); type: in vivo, barnyard grass (Echinochloa crus-galli); conditions: foliage application, 320 g/ha, evaluated three weeks after application
Procedure, shortened: as §1

lambsquarters [14] = experiment: Test Example 4: herbicidal effect by soil treatment (Table 19, symbol O); type: in vivo, lambsquarters (Chenopodium album); conditions: amount of applied herbicide 320 g/ha
Procedure, shortened: as §2

persian speedwell [15] = experiment: Test Example 5: herbicidal effect by foliage application, plastic box (Table 20, symbol R); type: in vivo, Persian speedwell (Veronica persica); conditions: foliage application, 320 g/ha, evaluated three weeks after application
Procedure, shortened: as §1

Italian ryegrass [16] = experiment: Test Example 5: herbicidal effect by foliage application, plastic box (Table 20, symbol K); type: in vivo, Italian ryegrass (Lolium multiflorum); conditions: foliage application, 320 g/ha, evaluated three weeks after application
Procedure, shortened: as §1

wild oat [17] = experiment: Test Example 5: herbicidal effect by foliage application, plastic box (Table 20, symbol I); type: in vivo, wild oat (Avena fatua); conditions: foliage application, 320 g/ha, evaluated three weeks after application
Procedure, shortened: as §1

barnyard grass [18] = experiment: Test Example 3: herbicidal effect by foliage application, Wagner pot (Table 18, symbol H); type: in vivo, barnyard grass (Echinochloa crus-galli); conditions: amount of applied herbicide 320 g/ha
Procedure, shortened: as §3

chickweed [19] = experiment: Test Example 5: herbicidal effect by foliage application, plastic box (Table 20, symbol P); type: in vivo, common chickweed (Stellaria media); conditions: foliage application, 320 g/ha, evaluated three weeks after application
Procedure, shortened: as §1

blackgrass [20] = experiment: Test Example 5: herbicidal effect by foliage application, plastic box (Table 20, symbol J); type: in vivo, blackgrass (Alopecurus myosuroides); conditions: foliage application, 320 g/ha, evaluated three weeks after application
Procedure, shortened: as §1

green foxtail [21] = experiment: Test Example 4: herbicidal effect by soil treatment (Table 19, symbol G); type: in vivo, green foxtail (Setaria viridis); conditions: amount of applied herbicide 320 g/ha
Procedure, shortened: as §2

redroot pigweed [22] = experiment: Test Example 5: herbicidal effect by foliage application, plastic box (Table 20, symbol N); type: in vivo, redroot pigweed (Amaranthus retroflexus); conditions: foliage application, 320 g/ha, evaluated three weeks after application
Procedure, shortened: as §1

chickweed [23] = experiment: Test Example 4: herbicidal effect by soil treatment (Table 19, symbol P); type: in vivo, common chickweed (Stellaria media); conditions: amount of applied herbicide 320 g/ha
Procedure, shortened: as §2

velvetleaf [24] = experiment: Test Example 5: herbicidal effect by foliage application, plastic box (Table 20, symbol M); type: in vivo, velvetleaf (Abutilon theophrasti); conditions: foliage application, 320 g/ha, evaluated three weeks after application
Procedure, shortened: as §1

redroot pigweed [25] = experiment: Test Example 4: herbicidal effect by soil treatment (Table 19, symbol N); type: in vivo, redroot pigweed (Amaranthus retroflexus); conditions: amount of applied herbicide 320 g/ha
Procedure, shortened: as §2

SMILES	herbicidal effect on F: southern crabgrass (southern crabgrass [1])	herbicidal effect on L: windgrass (windgrass [2])	L: windgrass, herbicidal effect rating (windgrass [3])	K: Italian ryegrass, herbicidal effect rating (Italian ryegrass [4])	herbicidal effect on O: lambsquarters (lambsquarters [5])	H: barnyard grass, herbicidal effect rating (barnyard grass [6])	M: velvetleaf, herbicidal effect rating (velvetleaf [7])	herbicidal effect on G: green foxtail (green foxtail [8])	F: southern crabgrass, herbicidal effect rating (southern crabgrass [9])	herbicidal effect on D: Chinese sprangletop (Chinese sprangletop)	J: blackgrass, herbicidal effect rating (blackgrass [10])	I: wild oat, herbicidal effect rating (wild oat [11])	herbicidal effect on E: rice flat sedge (rice flat sedge)	R: persian speedwell, herbicidal effect rating (persian speedwell [12])	herbicidal effect on H: barnyard grass (barnyard grass [13])	O: lambsquarters, herbicidal effect rating (lambsquarters [14])	herbicidal effect on H: barnyard grass (barnyard grass [18])	G: green foxtail, herbicidal effect rating (green foxtail [21])	P: chickweed, herbicidal effect rating (chickweed [23])	N: redroot pigweed, herbicidal effect rating (redroot pigweed [25])	also measured
Cc1ccc(-c2sc3ccc(C)cc3c2-c2c(O)c(C)nn(C)c2=O)cc1 [2-136]	0 (Herbicidal rate of 5% or less (almost no effect))	0 (Herbicidal rate of 5% or less (almost no effect))	0 (Herbicidal rate of 5% or less (almost no effect))	3 (Herbicidal rate of 40% or more and less than 70%)	4 (Herbicidal rate of 70% or more and less than 90%)	0 (Herbicidal rate of 5% or less (almost no effect))	0 (Herbicidal rate of 5% or less (almost no effect))	0 (Herbicidal rate of 5% or less (almost no effect))	3 (Herbicidal rate of 40% or more and less than 70%)	0 (Herbicidal rate of 5% or less (almost no effect))	0 (Herbicidal rate of 5% or less (almost no effect))	0 (Herbicidal rate of 5% or less (almost no effect))	5 (Herbicidal rate of 90% or more (almost completely withered))	5 (Herbicidal rate of 90% or more (almost completely withered))	0 (Herbicidal rate of 5% or less (almost no effect))	5 (Herbicidal rate of 90% or more (almost completely withered))	2 (Herbicidal rate of 20% or more and less than 40%)	0 (Herbicidal rate of 5% or less (almost no effect))	4 (Herbicidal rate of 70% or more and less than 90%)	5 (Herbicidal rate of 90% or more (almost completely withered))	herbicidal effect on R: persian speedwell (persian speedwell [15]): 5 (Herbicidal rate of 90% or more (almost completely withered)); herbicidal effect on K: Italian ryegrass (Italian ryegrass [16]): 5 (Herbicidal rate of 90% or more (almost completely withered)); herbicidal effect on I: wild oat (wild oat [17]): 0 (Herbicidal rate of 5% or less (almost no effect)); herbicidal effect on P: chickweed (chickweed [19]): 5 (Herbicidal rate of 90% or more (almost completely withered)); herbicidal effect on J: blackgrass (blackgrass [20]): 0 (Herbicidal rate of 5% or less (almost no effect)); herbicidal effect on N: redroot pigweed (redroot pigweed [22]): 5 (Herbicidal rate of 90% or more (almost completely withered)); herbicidal effect on M: velvetleaf (velvetleaf [24]): 5 (Herbicidal rate of 90% or more (almost completely withered))
CCCC(=O)Oc1c(C)nn(C)c(=O)c1-c1c(-c2ccc(C)cc2)sc2ccc(C)cc12 [2-137]	0 (Herbicidal rate of 5% or less (almost no effect))	0 (Herbicidal rate of 5% or less (almost no effect))	0 (Herbicidal rate of 5% or less (almost no effect))	2 (Herbicidal rate of 20% or more and less than 40%)	2 (Herbicidal rate of 20% or more and less than 40%)	0 (Herbicidal rate of 5% or less (almost no effect))	0 (Herbicidal rate of 5% or less (almost no effect))	3 (Herbicidal rate of 40% or more and less than 70%)	0 (Herbicidal rate of 5% or less (almost no effect))	1 (Herbicidal rate of 5% or more and less than 20%)	0 (Herbicidal rate of 5% or less (almost no effect))	0 (Herbicidal rate of 5% or less (almost no effect))	5 (Herbicidal rate of 90% or more (almost completely withered))	1 (Herbicidal rate of 5% or more and less than 20%)	0 (Herbicidal rate of 5% or less (almost no effect))	0 (Herbicidal rate of 5% or less (almost no effect))	1 (Herbicidal rate of 5% or more and less than 20%)	0 (Herbicidal rate of 5% or less (almost no effect))	4 (Herbicidal rate of 70% or more and less than 90%)	0 (Herbicidal rate of 5% or less (almost no effect))	herbicidal effect on R: persian speedwell (persian speedwell [15]): 5 (Herbicidal rate of 90% or more (almost completely withered)); herbicidal effect on K: Italian ryegrass (Italian ryegrass [16]): 4 (Herbicidal rate of 70% or more and less than 90%); herbicidal effect on I: wild oat (wild oat [17]): 0 (Herbicidal rate of 5% or less (almost no effect)); herbicidal effect on P: chickweed (chickweed [19]): 5 (Herbicidal rate of 90% or more (almost completely withered)); herbicidal effect on J: blackgrass (blackgrass [20]): 0 (Herbicidal rate of 5% or less (almost no effect)); herbicidal effect on N: redroot pigweed (redroot pigweed [22]): 4 (Herbicidal rate of 70% or more and less than 90%); herbicidal effect on M: velvetleaf (velvetleaf [24]): 4 (Herbicidal rate of 70% or more and less than 90%)
Cc1ccc2sc(-c3ccc4c(c3)OCO4)c(-c3c(O)c(C)nn(C)c3=O)c2c1 [2-156]	–	–	0 (Herbicidal rate of 5% or less (almost no effect))	0 (Herbicidal rate of 5% or less (almost no effect))	–	0 (Herbicidal rate of 5% or less (almost no effect))	0 (Herbicidal rate of 5% or less (almost no effect))	–	0 (Herbicidal rate of 5% or less (almost no effect))	0 (Herbicidal rate of 5% or less (almost no effect))	0 (Herbicidal rate of 5% or less (almost no effect))	0 (Herbicidal rate of 5% or less (almost no effect))	4 (Herbicidal rate of 70% or more and less than 90%)	4 (Herbicidal rate of 70% or more and less than 90%)	–	3 (Herbicidal rate of 40% or more and less than 70%)	3 (Herbicidal rate of 40% or more and less than 70%)	0 (Herbicidal rate of 5% or less (almost no effect))	4 (Herbicidal rate of 70% or more and less than 90%)	2 (Herbicidal rate of 20% or more and less than 40%)	herbicidal effect on F: southern crabgrass (criteria 0-5) (southern crabgrass [1]): 0 (Herbicidal rate of 5% or less (almost no effect)); herbicidal effect on L: windgrass (criteria 0-5) (windgrass [2]): 0 (Herbicidal rate of 5% or less (almost no effect)); herbicidal effect on O: lambsquarters (criteria 0-5) (lambsquarters [5]): 0 (Herbicidal rate of 5% or less (almost no effect)); herbicidal effect on G: green foxtail (criteria 0-5) (green foxtail [8]): 0 (Herbicidal rate of 5% or less (almost no effect)); herbicidal effect on H: barnyard grass (criteria 0-5) (barnyard grass [13]): 0 (Herbicidal rate of 5% or less (almost no effect)); herbicidal effect on R: persian speedwell (criteria 0-5) (persian speedwell [15]): 5 (Herbicidal rate of 90% or more (almost completely withered)); herbicidal effect on K: Italian ryegrass (criteria 0-5) (Italian ryegrass [16]): 1 (Herbicidal rate of 5% or more and less than 20%); herbicidal effect on I: wild oat (criteria 0-5) (wild oat [17]): 0 (Herbicidal rate of 5% or less (almost no effect)); herbicidal effect on P: chickweed (criteria 0-5) (chickweed [19]): 5 (Herbicidal rate of 90% or more (almost completely withered)); herbicidal effect on J: blackgrass (criteria 0-5) (blackgrass [20]): 0 (Herbicidal rate of 5% or less (almost no effect)); herbicidal effect on N: redroot pigweed (criteria 0-5) (redroot pigweed [22]): 3 (Herbicidal rate of 40% or more and less than 70%); herbicidal effect on M: velvetleaf (criteria 0-5) (velvetleaf [24]): 4 (Herbicidal rate of 70% or more and less than 90%)
